Reference: article PMC12951562, “SH2scan: Mapping SH2 Domain-Ligand Binding Selectivity for Inhibitors and Degraders” (Journal of Medicinal Chemistry, 2026)
Read-outs that look alike come from different tables or passages of the source.

Tests used:
Experiment in all cases: biochemical
Assay type in all cases: binding
ITK = molecular target: T1, ITK (Homo sapiens, UniProt Q08881); conditions: for percent of DMSO vehicle control: primary screen, 10 μM
T1 construct: the DNA-tagged SH2 domain concentrations used in this study were <0.1 nM; made in house; host or cells: HEK293 (transient transfection, unpurified extract)
T1 sequence (Q08881 239-338 limits assumed): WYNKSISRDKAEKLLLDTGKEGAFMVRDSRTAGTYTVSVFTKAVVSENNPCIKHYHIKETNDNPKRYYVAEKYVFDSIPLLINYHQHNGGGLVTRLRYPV

FRK = molecular target: T2, FRK (Homo sapiens, UniProt P42685); conditions: read-out: percent of DMSO vehicle control; for remaining activity at 10 µM: primary screen
T2 construct: the DNA-tagged SH2 domain concentrations used in this study were <0.1 nM; made in house; host or cells: HEK293 (transient transfection; unpurified extract)
T2 sequence (P42685 116-208 limits assumed): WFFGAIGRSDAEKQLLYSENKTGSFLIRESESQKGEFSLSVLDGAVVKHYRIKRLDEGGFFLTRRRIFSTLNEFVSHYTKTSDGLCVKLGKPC

CBLB = molecular target: T3, CBLB (Homo sapiens, UniProt Q13191); conditions: primary screen, 10 μM
T3 construct: the DNA-tagged SH2 domain concentrations used in this study were <0.1 nM; made in house; host or cells: HEK293 (transient transfection; unpurified extract)
T3 sequence (Q13191 241-343 limits assumed): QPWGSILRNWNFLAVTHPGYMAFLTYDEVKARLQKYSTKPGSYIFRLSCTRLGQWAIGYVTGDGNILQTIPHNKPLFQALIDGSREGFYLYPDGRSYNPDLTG

TEC = molecular target: T4, TEC (Homo sapiens, UniProt P42680); conditions: read-out: percent of DMSO vehicle control; for remaining activity at 10 µM: primary screen
T4 construct: made in house; host or cells: HEK293 (transient transfection), unpurified extract
T4 sequence (P42680 1-631): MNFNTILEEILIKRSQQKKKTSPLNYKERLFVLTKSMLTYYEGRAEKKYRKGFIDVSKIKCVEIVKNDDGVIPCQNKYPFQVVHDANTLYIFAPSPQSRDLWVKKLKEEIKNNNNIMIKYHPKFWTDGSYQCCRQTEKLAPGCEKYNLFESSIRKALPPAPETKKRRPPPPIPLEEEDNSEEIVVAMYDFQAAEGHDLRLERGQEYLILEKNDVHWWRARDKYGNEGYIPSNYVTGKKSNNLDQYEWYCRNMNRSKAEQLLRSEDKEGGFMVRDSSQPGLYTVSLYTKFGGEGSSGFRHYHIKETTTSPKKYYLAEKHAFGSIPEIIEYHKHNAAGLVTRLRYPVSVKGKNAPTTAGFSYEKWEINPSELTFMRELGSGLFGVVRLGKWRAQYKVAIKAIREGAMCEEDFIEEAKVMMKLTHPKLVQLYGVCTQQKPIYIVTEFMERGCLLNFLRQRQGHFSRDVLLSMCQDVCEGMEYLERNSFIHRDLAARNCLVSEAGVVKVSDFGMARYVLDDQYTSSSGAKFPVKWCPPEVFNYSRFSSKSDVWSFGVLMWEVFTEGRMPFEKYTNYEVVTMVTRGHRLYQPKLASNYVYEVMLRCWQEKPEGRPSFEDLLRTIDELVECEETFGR

TXK = molecular target: T5, TXK (Homo sapiens, UniProt P42681); conditions: read-out: percent of DMSO vehicle control
T5 construct: made in house; host or cells: HEK293 (transient transfection), unpurified extract
T5 sequence (P42681 1-527): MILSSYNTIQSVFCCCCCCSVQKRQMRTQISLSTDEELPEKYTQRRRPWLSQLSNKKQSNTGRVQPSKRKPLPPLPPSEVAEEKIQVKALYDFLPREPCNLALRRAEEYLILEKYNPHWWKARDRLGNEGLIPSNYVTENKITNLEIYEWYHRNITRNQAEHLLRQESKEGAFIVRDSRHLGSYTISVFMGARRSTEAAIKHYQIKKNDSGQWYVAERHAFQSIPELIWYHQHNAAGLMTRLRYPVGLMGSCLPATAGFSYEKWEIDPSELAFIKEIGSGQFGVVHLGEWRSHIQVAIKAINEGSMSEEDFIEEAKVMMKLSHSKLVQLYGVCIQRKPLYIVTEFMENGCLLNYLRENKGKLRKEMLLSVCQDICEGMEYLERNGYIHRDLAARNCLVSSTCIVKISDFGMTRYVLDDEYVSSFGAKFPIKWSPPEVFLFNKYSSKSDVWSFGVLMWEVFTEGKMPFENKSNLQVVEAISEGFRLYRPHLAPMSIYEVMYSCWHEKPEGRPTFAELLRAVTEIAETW

GADS = molecular target: T6, GADS (Homo sapiens, UniProt O75791); conditions: for percent of DMSO vehicle control at 10 µM / remaining activity at 10 µM: read-out: percent of DMSO vehicle control; for remaining activity at 10 µM: primary screen
T6 construct: the DNA-tagged SH2 domain concentrations used in this study were <0.1 nM; made in house; host or cells: HEK293 (transient transfection; unpurified extract)
T6 sequence (O75791 58-149 limits assumed): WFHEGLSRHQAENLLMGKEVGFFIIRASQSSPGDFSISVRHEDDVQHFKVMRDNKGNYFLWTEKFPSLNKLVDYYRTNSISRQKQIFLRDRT

PLCG2(SH2dom.C-term.) = molecular target: T7, PLCG2(SH2dom.C-term.) (Homo sapiens, UniProt P16885); conditions: for remaining activity at 10 µM: read-out: percent of DMSO vehicle control
T7 construct: SH2dom.C-term. denotes SH2 domain closest to C-terminus of protein; made in house; host or cells: HEK293 (transient transfection, unpurified extract)
T7 sequence (P16885 646-735 limits assumed): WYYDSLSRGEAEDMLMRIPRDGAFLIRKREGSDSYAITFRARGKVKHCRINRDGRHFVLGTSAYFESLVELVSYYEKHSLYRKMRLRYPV

SOCS4 = molecular target: T8, SOCS4 (Homo sapiens, UniProt Q8WXH5); conditions: for Kd: dose-response; for remaining activity at 10 µM: read-out: percent of DMSO vehicle control
T8 construct: made in house; host or cells: HEK293 (transient transfection), unpurified extract
T8 sequence (Q8WXH5 1-440): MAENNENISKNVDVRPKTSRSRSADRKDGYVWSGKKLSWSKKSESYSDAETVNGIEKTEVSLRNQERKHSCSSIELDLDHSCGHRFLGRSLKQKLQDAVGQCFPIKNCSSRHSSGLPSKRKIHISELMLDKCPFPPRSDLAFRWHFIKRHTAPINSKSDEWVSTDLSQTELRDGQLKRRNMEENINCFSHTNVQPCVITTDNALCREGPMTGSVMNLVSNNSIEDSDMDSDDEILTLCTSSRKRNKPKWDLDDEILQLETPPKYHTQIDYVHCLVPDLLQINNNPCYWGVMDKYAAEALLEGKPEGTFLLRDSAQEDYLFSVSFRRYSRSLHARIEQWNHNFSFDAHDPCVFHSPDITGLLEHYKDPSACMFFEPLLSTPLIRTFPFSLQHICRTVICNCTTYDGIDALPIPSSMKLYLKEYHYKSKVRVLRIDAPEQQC

SH2B (SH2B1) = molecular target: T9, SH2B (SH2B1) (Homo sapiens, UniProt Q9NRF2); conditions: read-out: percent of DMSO vehicle control
T9 construct: made in house; host or cells: HEK293 (transient transfection), unpurified extract

LYN = molecular target: T10, LYN (Homo sapiens, UniProt P07948); conditions: read-out: percent of DMSO vehicle control
T10 construct: the DNA-tagged SH2 domain concentrations used in this study were <0.1 nM; made in house; host or cells: HEK293 (transient transfection, unpurified extract)
T10 sequence (P07948 129-226 limits assumed): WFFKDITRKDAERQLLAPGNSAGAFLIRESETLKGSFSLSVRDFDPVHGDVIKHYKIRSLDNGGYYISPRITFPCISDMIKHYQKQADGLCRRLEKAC

YES = molecular target: T11, YES (Homo sapiens, UniProt P07947); conditions: for remaining activity at 10 µM: read-out: percent of DMSO vehicle control
T11 construct: the DNA-tagged SH2 domain concentrations used in this study were <0.1 nM; made in house; host or cells: HEK293 (transient transfection; unpurified cell extract)
T11 sequence (P07947 158-255 limits assumed): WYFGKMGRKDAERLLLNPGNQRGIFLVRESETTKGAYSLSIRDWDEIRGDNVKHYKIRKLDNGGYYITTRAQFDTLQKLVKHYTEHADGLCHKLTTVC

PLCG2(SH2dom.N-term.) = molecular target: T12, PLCG2(SH2dom.N-term.) (Homo sapiens, UniProt P16885); conditions: for remaining activity at 10 µM: read-out: percent of DMSO vehicle control
T12 construct: SH2dom.N-term. denotes SH2 domain closest to N-terminus of protein; made in house; host or cells: HEK293 (transient transfection, unpurified extract)
T12 sequence (P16885 532-635 limits assumed): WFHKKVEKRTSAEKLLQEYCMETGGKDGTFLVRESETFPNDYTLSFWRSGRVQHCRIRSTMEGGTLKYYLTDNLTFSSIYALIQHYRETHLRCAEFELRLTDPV

Row | Compound | percent of DMSO vehicle control (ITK) | percent of DMSO vehicle control at 10 µM (FRK) | percent of DMSO vehicle control (CBLB) | percent of DMSO vehicle control at 10 µM (TEC) | remaining activity at 10 µM (TXK) | percent of DMSO vehicle control at 10 µM (GADS) | remaining activity at 10 µM (PLCG2(SH2dom.C-term.)) | remaining activity at 10 µM (SOCS4) | remaining activity at 10 µM (SH2B (SH2B1)) | remaining activity at 10 µM (LYN) | remaining activity at 10 µM (YES) | remaining activity at 10 µM (PLCG2(SH2dom.N-term.)) | remaining activity at 10 µM (FRK) | remaining activity at 10 µM (TEC) | remaining activity at 10 µM (TXK; primary screen, 10 μM) | remaining activity at 10 µM (GADS) | remaining activity at 10 µM (PLCG2(SH2dom.C-term.); primary screen, 10 μM) | Kd (SOCS4; read-out: KD) | remaining activity at 10 µM (SOCS4; primary screen, 10 μM) | remaining activity at 10 µM (SH2B (SH2B1); primary screen, 10 μM) | also measured
1 | NC(=O)CC[C@H](NC(=O)[C@@H]1CC[C@@H]2CCN(C(=O)CCCCCC#Cc3cccc4c3CN(C3CCC(=O)NC3=O)C4=O)C[C@H](NC(=O)c3cc4cc(C(F)(F)P(=O)(O)O)ccc4[nH]3)C(=O)N21)C(=O)NC(c1ccccc1)c1ccccc1 (some centres unmarked) [SD-36] | 94.0±11.1% | 155 ± 4.5% | 60.9±5.8% | 121 ± 3% | 101 ± 9.7% | 140.4 ± 0.2% | 86.3 ± 12.4% | 30 ± 17.2% | 68.4 ± 0.4% | 90.9 ± 2.3% | 73.3 ± 11.9% | 73.8 ± 3.7% |  |  |  |  |  |  |  |  | Kd (SOCS4): 5.9 µM
2 | CC(=O)N1CC[C@H]2CC[C@@H](C(=O)N[C@@H](CCC(N)=O)C(=O)NC(c3ccccc3)c3ccccc3)N2C(=O)[C@@H](NC(=O)c2cc3cc(C(F)(F)P(=O)(O)O)ccc3[nH]2)C1 [SI-109] | 124.2% | 151% | 128.3% | 135% | 118% | 276% | 98.7 ± 6.9% | 123% | 149% | 140% | 113% | 112% |  |  |  |  |  |  |  |  | 
3 | C/C(=C\C(=O)N[C@H](C(=O)N1CCC[C@H]1C(=O)N(c1ccccc1)c1ccc(I)cc1)C(C)(C)C)c1ccc(OP(=O)(O)O)cc1 [STAT6-IN-1] | 0.0±0.0% |  | 36.0±0.8% |  |  |  |  |  |  |  |  |  | 38.3 ± 5.9% | 75.1 ± 3.7% | 87.1 ± 5.9% | 9.6 ± 0.1% | 7.5 ± 0.6% | 0.013 µM | 0% | 22.6 ± 6.8% | Kd (ITK; dose-response, read-out: KD): 10.3 µM; Kd (GADS; dose-response, read-out: KD): 2.4 µM; Kd (PLCG2(SH2dom.C-term.); dose-response, read-out: KD): 3.8 ± 0.5 µM; remaining activity at 10 µM (LYN; primary screen, 10 μM): 73.6 ± 54%; Kd (YES; dose-response, read-out: KD): 9.2 ± 0.38 µM; remaining activity at 10 µM (YES; primary screen, 10 μM): 29.5%; Kd (PLCG2(SH2dom.N-term.); dose-response, read-out: KD): 0.55 ± 0.014 µM; remaining activity at 10 µM (PLCG2(SH2dom.N-term.); primary screen, 10 μM): 20.7 ± 29.3%
4 | CC(C)(C)[C@H](NC(=O)/C=C/c1ccc(OP(=O)(O)O)cc1)C(=O)N1CCC[C@H]1C(=O)N(c1ccccc1)c1ccc(I)cc1 [STAT6-IN-3] | 0±54.7% |  | 69.0±7.6% |  |  |  |  |  |  |  |  |  | 59.9 ± 42.5% | 136 ± 22.9% | 85.4 ± 12.9% | 76.5 ± 7.9% | 75.3 ± 10% | 0.01 µM | 0% | 78.1 ± 4.8% | remaining activity at 10 µM (LYN; primary screen, 10 μM): 82.3 ± 17.1%; remaining activity at 10 µM (YES; primary screen, 10 μM): 37.7 ± 27.8%; remaining activity at 10 µM (PLCG2(SH2dom.N-term.); primary screen, 10 μM): 51.6 ± 17.6%
